Entries after “also recorded” stand apart in the source; their conditions may differ.

Test [1] deals with arthritic joints of DMM mice. The test can be described thus: In vivo optical imaging of fluorescence-labeled ApoPep-1 probe in DMM OA mice. Also on record: species or system C57BL/6N mice. The conditions noted are these: for OARSI grade of OA at which the probe detects OA / apoptotic chondrocytes: DMM model. The method, then:
(§1) Male mice at 12 weeks of age were divided into three groups: Sham-ApoPep-1, OA-Control Peptide and OA-ApoPep-1 group (n=4-8/group). For OA model, we performed DMM surgery as described in previous studies (8, 23).
(§2) FlammaTM675-ApoPep-1 was intravenously (i.v.) injected from the tail vain (1 mM 100 μl/20 g) and allowed to circulate for the indicated time periods. In vivo optical imaging was conducted by scanning the mice under anesthesia by inhalation of isofluran (jw pharmaceutical, South Korea) in 80% N2O/20% O2 using Optix Explore (ART, Montreal, Canada). The excitation/emission wavelengths for FlammaTM675 were 676 nm/704 nm. Ex vivo optical imaging was performed with extracted hind limbs by the same method. FlammaTM675-NSSSVDK was used as the control peptide (18).

Test [2] relates to apoptotic chondrocytes of DMM-operated articular cartilage. The experiment in a line: In situ immunofluorescence staining and TUNEL assay of OA cartilage cryo-sections. More on the design: species or system mice. The method, then: Hind limbs of mice were fixed with 4% paraformaldehyde in 0.1 M phosphate-buffered saline (PBS, pH 7.4) for 12 hours, and decalcified with 10% ethylene-diamine tetraacetic acid (EDTA, pH 7.4) for 3 weeks. Decalcified tissues were dipped in 20% sucrose/PBS solution overnight and embedded in OCT compound (Tissue-Tek) for making the frozen samples. Frozen samples were cut at 10 μm thickness from femur to tibia range for joint visible. Cut slices from each animal were selected for the staining with same primary antibodies to comparison at the same area of joint articular cartilage. The section was treated with a blocking solution (0.1% tween-20, 1% bovine serum albumin (BSA), 5% normal donkey serum in PBS) after washing with PBS, and then incubated at 4° C. 1 h with the primary antibodies such as rabbit polyclonal collagen 2 antibody (1:200; abcam, MA, USA), mouse monoclonal MMP-13 antibody (1:200; abcam, MA, USA). After PBS rinses, the sections were incubated with Alexa-594 or Alexa-488-conjugated secondary antibody for 30 min. Thereafter, the sections were incubated with 4′,6′-diamidino-2-phenylindole (DAPI, Sigma-Aldrich, St Louis, Mo., USA) for nuclear staining then mounted with a ProLong® Antifade Kit (Invitrogen, USA). […]

Test [3] has as its system arthritic joints of DMM mice. The test can be described thus: Ex vivo optical imaging of extracted hind limbs of DMM mice. Type of test: in vivo, C57BL/6N mice. The method, then: as §1, §2
In test [4] the test system is ATDC5 chondrocyte cell treated with staurosporine. The test can be described thus: In vitro binding to apoptotic chondrocytes (immunocytochemistry). The conditions noted are these: fluorescence staining; for binding to apoptotic cells: chondrocytes treated with staurosporine; for binding to live cells: live chondrocytes. It is filed as cell-based. The method, then:
ATDC5 chondrocyte cell was maintained in a mixture of DMEM and Ham's F-12 (DMEM/F12) medium (Lonza, USA) containing 5% fetal bovine serum (FBS) (Gibco-BRL, USA), 10 ug/ml of human transferrin (Sigma) and 3×10^-8 M of sodium selenite (Sigma) and penicillin/streptomycin. Apoptosis was induced by incubating cells with 0.5 uM Staurosporine (cell signaling, USA) for the indicated time periods. Apoptotic stages were determined by staining the cells with annexin V and ApoPep-1 conjugated with flamma 675. For immunocytochemistry staining, cells were incubated with 1% bovine serum albumin at 37° C. for 30 min for blocking and then binding with 10 μM flamma 675-conjugated peptide at 4° C. for 1 h. Cells were then costained with Alexa-594-annexin V (Invitrogen, Carlsbad, Calif., USA) for 15 min at room temperature in binding buffer (10 mM HEPES, pH 7.4, 140 mM NaCl, and 2.5 mM CaCl2). After fixation, cells were incubated with DAPI for nuclear staining and mounted with a ProLong® Antifade Kit.

For CQRPPR [ApoPep-1], the “time after DMM operation at which the probe can detect apoptotic change” value in test [1] (DMM OA model) was 2 weeks. Also, the “OARSI grade of OA at which the probe detects OA / apoptotic chondrocytes” value is “grade I OA; also recorded: Grades I” in test [1] and “Grade II” in test [1] (listed as ApoPep1). For the same substance, the “ApoPep-1 fluorescent signal from arthritic joints compared with 4 weeks” value in test [1] (i.v. injection, 8 weeks after DMM operation) is listed as “reduced”. The “optimal time point for diagnosis after injection” value in test [1] (i.v. injection, DMM mice) is 30 min. Also, the “time after injection after which ApoPep-1 binding is undetectable” value in test [1] (i.v. injection, DMM mice) is 8 h. The “time after injection of maximal ApoPep-1 binding” value in test [1] (i.v. injection, DMM mice) amounted to 30 min. For the same substance, the “fluorescent signal time course after probe injection” value in test [1] (images from 30 minutes to 24 hours after i.v. administration, DMM mice) was “clearly detectable from arthritic joint sat 30 minutes after the probe injection and decreased according to time course”. Moreover, the “ApoPep-1 fluorescent signal from arthritic joints” value was “maximal” in test [1] (in vivo, i.v. injection, 4 weeks after DMM operation) and “maximal” in test [3] (4 weeks after DMM operation). The “ApoPep-1 fluorescent signal from arthritic joints compared with sham-ApoPep-1 and OA-control-Peptide groups” value in test [1] (in vivo, i.v. injection, one week after DMM operation) is “no significant difference”; in test [1] (in vivo, i.v. injection, two weeks after DMM operation) it was “detected strongly; also recorded: significant increase”; in test [3] (two weeks after DMM operation), “significant increase”. In addition, the “correlation of TUNEL staining with ApoPep-1 signals” value in test [2] (DMM models 2 weeks after surgery) is reported as “strongly correlated”. In addition, the “localisation of ApoPep-1 relative to type II collagen and MMP13” value in test [2] (DMM-operated articular cartilage, 2 weeks after surgery) is “detected where type II collagen decreased and MMP13 increased”. In addition, in test [4], the “binding to apoptotic cells” value is given as “bind to apoptotic cells”. Also, the “binding to live cells” value in test [4] was “not to live cells”.
For the substance “annexin V: a 36 kDa protein that binds to phosphatidylserine, early marker of apoptotic cell death [reference compound]”, in test [4], the “binding to apoptotic cells” value was “bind to apoptotic cells” and the “binding to live cells” value is “not to live cells”.

The values are drawn from US20160000938A1, “REAGENT FOR DIAGNOSIS OF OSTEOARTHRITIS COMPRISING PEPTIDE PROBE OF APOPEP-1” (priority 2013, published 2016).
